Data as given in patent US7052850B2, “Isolated human EDG-4 receptor” (priority 1997, dated 2006).

Legend:
Type in all cases: cell-based
human EDG-5 = target: T1, human EDG-5 (Homo sapiens, UniProt Q9UBY5); assay: NF-κB luciferase reporter in 293-EBNA cells, human EDG-5; conditions: 10 μM LPA overnight
T1 construct: expressed in transfected cells; host or cells: 293-EBNA
T1 sequence (Q9UBY5 1-353): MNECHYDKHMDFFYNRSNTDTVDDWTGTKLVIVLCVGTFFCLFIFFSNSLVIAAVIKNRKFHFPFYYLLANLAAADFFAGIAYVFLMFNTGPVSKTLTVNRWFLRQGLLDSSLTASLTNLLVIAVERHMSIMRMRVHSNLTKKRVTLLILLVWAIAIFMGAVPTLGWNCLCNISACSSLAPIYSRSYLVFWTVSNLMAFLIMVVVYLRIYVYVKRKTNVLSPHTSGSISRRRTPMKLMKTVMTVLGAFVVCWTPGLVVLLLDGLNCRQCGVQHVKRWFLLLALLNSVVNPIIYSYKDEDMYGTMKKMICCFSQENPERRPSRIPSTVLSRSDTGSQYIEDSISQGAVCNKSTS
Protocol: The above protocol for assay 1 was followed except for the following changes: • 1) 100 mm plates of 293-EBNA with a confluency of ˜80% were used for transfection. • 2) 3 μg NFκB-tk-p4Luc reporter DNA and 3 μg pC3-hedg1, pC3-hedg 3, pC3-redg4, pC3-hedg5 or pcDNA3 DNA was diluted in 240 μl OPTI-MEM (Gibco; Cat. 31985-062) • 3) 22 μl lipofectamine (Gibco; Cat. 1 8324-020) was diluted in 240 μl OPTI-MEM. • 4) The 293-EBNA plates were washed once with PBS and 7 ml OPTI-MEM was added to each plate. • 5) DNA/lipofectamine mixture was added to each plate of 293-EBNA cells. The plates were left for 4 hrs at 37° C. in a 5% CO2 incubator. Day 2: • 1) 0.01×10^6 cells were plated per well of 96-well Blackview plate coated with polyD-lysine. No cells were plated in the outside wells of the 96-well plate. Day 3: The following treatments were used for all transections:
293-EBNA cells were grown, lipofected in monolayer cultures, and pretreated as described above for Example 11, assay #1, except that NF-κB and AP-1 reporter-transfected cells were preteated for 6 hr in medium containing 0.5% […], then treated overnight in the same medium with or without 10 μM LPA.

EDG-6 [1] = target: T2, EDG-6 (Homo sapiens, UniProt Q9HBW0); assay: SRE reporter in 293-EBNA cells, EDG-6; conditions: 10 μM LPA
T2 construct: expressed in transfected cells; host or cells: 293-EBNA
T2 sequence (Q9HBW0 with tags, fused parts or gaps): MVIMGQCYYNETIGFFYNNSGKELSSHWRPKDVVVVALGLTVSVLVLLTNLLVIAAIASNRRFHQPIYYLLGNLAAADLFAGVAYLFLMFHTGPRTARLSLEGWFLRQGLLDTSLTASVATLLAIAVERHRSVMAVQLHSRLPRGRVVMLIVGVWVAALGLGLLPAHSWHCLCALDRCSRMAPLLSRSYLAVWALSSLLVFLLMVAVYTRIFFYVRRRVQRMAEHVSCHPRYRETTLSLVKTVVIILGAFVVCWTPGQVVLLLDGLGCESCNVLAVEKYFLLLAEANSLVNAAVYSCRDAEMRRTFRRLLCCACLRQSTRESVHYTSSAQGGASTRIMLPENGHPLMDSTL
Source text: (§1) LPA, like S1P, is abundant in serum, but not plasma. Moreover, LPA is produced as a consequence of phospholipase A2 with or without the contribution of phospholipase D (depending on the phospholipid substrate). […] To date we have identified three subtypes of edg receptors that respond to LPA as an agonist. These are EDG-2, […] (referred to also as LPA1, LPA2 and LPA3, respectively (Chun, J, Contos, JJA and Munroe, DG. 1998. A growing family of receptor genes for lysophophatidid acid (LPA) and other lyso-phospholipids. Cell Biochem Biophys (in press)). The EDG-5 receptor is set out in co-pending U.S. application Ser. No. 08/997,803 to MUNROE et al., incorporated herein to reference and the amino acid sequence and cDNA sequence for the EDG-6 receptor is set out in FIGS. 21 and 22, respectively. To determine whether these receptors might mediate inflammatory responses, each was cotransfected separately with SRE, NF-κB or AP-1 reporter genes. […] This transcription factor, like NF-κB has been implicated in inflammatory and neoplastic signal transduction, though the gene targets of its action are largely distinct from those of NF-κB (Adcock I M. 1997. Transcription factors as activators of gene transcription; AP-1 and NF-κB. Monaldi Arch Chest Dis 52:178–186. Review). […]

EDG-6 [2] = target: T2, EDG-6; assay: AP-1 reporter in 293-EBNA cells, EDG-6; conditions: 10 μM LPA
Source text: as §1

EDG-6 [3] = target: T2, EDG-6; assay: NF-κB reporter in 293-EBNA cells, EDG-6; conditions: 10 μM LPA overnight
Source text: as §1

[4] = system: pcDNA3-transfected 293-EBNA cells; assay: AP-1 reporter in 293-EBNA cells, empty vector pcDNA3; conditions: 10 μM LPA
Source text: as §1

rat EDG-4 = rat EDG-4 (Rattus norvegicus, UniProt P47752); assay: IL-8 response in COS-1 cells transfected with rat EDG-4 expression plasmid; design: transient transfection with a eukaryotic expression vector expressing full-length rat edg-4 cDNA; expressed in transfected cells; conditions: COS-1, EDG-4 expression plasmid; 5 μm S1P overnight
Sequence of rat EDG-4 (P47752 whole entry): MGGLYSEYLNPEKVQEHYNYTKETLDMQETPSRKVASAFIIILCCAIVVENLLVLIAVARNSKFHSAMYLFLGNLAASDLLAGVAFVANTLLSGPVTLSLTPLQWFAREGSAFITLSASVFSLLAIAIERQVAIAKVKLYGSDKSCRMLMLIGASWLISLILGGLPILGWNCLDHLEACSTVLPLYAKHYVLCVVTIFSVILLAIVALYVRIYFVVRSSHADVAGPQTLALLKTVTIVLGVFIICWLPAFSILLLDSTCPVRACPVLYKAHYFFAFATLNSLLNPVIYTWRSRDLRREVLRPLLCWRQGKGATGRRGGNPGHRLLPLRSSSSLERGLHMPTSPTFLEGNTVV

COS-1 cells = assay: IL-8 response in control COS-1 cells (empty vector pcDNA3); conditions: control cells transfected with pcDNA3; 5 μm S1P
pcDNA3-transfected cells = assay: Calcium microfluorimetry (fura-2), pcDNA3-transfected 293-EBNA cells; conditions: 2 μM S1P
Protocol: Transfections were carried out with EDG receptors in 293-EBNA cells as described above, except that no reporter gene vector was included in the DNA mix. Two days after transfection, cells were harvested by trypsinization and plated at a density of 200,000 cells onto poly-D-lysine-coated coverslips in 100 μl of medium containing 0.5% FBS. After briefly allowing cell attachment to take place, 2 ml of medium without FBS was added and the cells were incubated overnight. The next day, cells were loaded with 5 μM fura-2 AM ester (Molecular Probes) for 60 min at RT, then washed and used for calcium microfluorimetry. […] Treatments were applied using a gravity-fed perfusion apparatus. Fluorescence emission was continuously monitored and recorded with PTI 2.060a software and analyzed with Sigma Plot software. Intracellular calcium concentrations were calculated by interpolation on a ratiometric fluorescence curve generated from fura-2 fluorescence in a calcium dilution series.

EDG-7 = assay: SRE reporter, EDG-7
EDG-1 = EDG-1 (Homo sapiens, UniProt P21453); assay: SRE luciferase reporter (2XSREtk-p4Luc-zeo) in 293-EBNA cells, EDG-1; conditions: Assay 3; 3 μM; 6 hours
Sequence of EDG-1 (P21453 whole entry): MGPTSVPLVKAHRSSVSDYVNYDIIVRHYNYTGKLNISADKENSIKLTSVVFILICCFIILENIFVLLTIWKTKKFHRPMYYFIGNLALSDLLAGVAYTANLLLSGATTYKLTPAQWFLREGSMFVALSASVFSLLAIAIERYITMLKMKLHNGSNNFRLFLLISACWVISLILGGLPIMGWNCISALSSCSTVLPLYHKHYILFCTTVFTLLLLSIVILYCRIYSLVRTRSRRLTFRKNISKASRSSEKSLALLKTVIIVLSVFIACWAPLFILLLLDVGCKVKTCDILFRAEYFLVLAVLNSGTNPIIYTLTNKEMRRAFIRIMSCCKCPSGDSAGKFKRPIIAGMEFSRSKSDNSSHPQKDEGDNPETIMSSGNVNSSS
Protocol: The protocol described in Example 11 for Assay 1 was allowed except for the following changes: • 1) 100 mm plates of 293-EBNA ith a confluency of ˜80% were used for transfection, • 2) SRE Cotransfection: 0.5 μg of 2XSREtk-p4Luc-zeo reporter DNA and 3.5 μg pcDNA3, EDG-1, EDG-3 pC3-hE3P2, different from the clone used in Assay 2 of Example 11) or the newly cloned human EDG-4 (pC3-hedg4#36); NF-κB Cotransfection: 2 μg 6XNFκBtk-p4LUc-zeo reporter DNA and 2.0 μg pcDNA3, EDG-1, EDG-3 (pC3-hE3HP2), or EDG-4 (pC3-hedg4#36). Expression plasmid and reporter plasmid DNA samples were combined and diluted in 750 μl of DMEM/F12 (serum free media) and 20 μl Plus Reagent (Lipofectamine Plus Kit, Life Technologies Cat. 109640-13), and incubated at room temperature for 15 min. • 3) 30 μl Lipofectamine Reagent (Lipofectamine Plus Kit) was diluted in 750 μl DMEM/F12. The diluted Lipofectamine was then combined with the DNA/Plus mixture and incubated at room temperature for 15 min. • 4) The 293-EBNA plates were washed once with PBS and 5 ml DMEM/F12 was added to each plate. • 5) DNA/Plus/Lipofectamine mixture was added to each plate of 293-EBNA cells. […]

| activation of the NF-κB reporter (human EDG-5) | induction of the SRE reporter (EDG-6 [1]) | induction of the AP-1 reporter (EDG-6 [2]) | activation of the NF-κB reporter (EDG-6 [3]) | Compound | endogenous AP-1 reporter response vs untreated control cells [4] | increase in IL-8 release compared to untreated cells (rat EDG-4) [fold] | IL-8 response to S1P (COS-1 cells) | change in intracellular calcium (pcDNA3-transfected cells) | SRE reporter response (EDG-7) | increase in luciferase activity (SRE reporter) (EDG-1) [fold] |
| --- | --- | --- | --- | --- | --- | --- | --- | --- | --- | --- |
| 3–4 fold | strongly induced | strongly induced | 3–4 fold | lysophosphatidic acid [LPA] | about 1.5 fold |  |  |  |  |  |
|  |  |  |  | CCCCCCCCCCCCC/C=C/[C@@H](O)[C@@H](N)COP(=O)(O)O [S1P, sphingosine 1-phosphate] |  | 2 | No IL-8 | approximately 60 nM | respond through the SRE reporter | 8 |
